Laboratory results from article PMC11978698, “Differential uptake of arginine derivatives by the human heteromeric amino acid transporter b^0,+AT-rBAT (SLC7A9-SLC3A1)” (Naunyn-Schmiedeberg's Archives of Pharmacology, 2024).

What was measured:
[1] = biological target: T1, b0,+AT (SLC7A9), in the heteromeric transporter b0,+AT-rBAT (Homo sapiens, UniProt P82251); assay: cell-based
T1 sequence (P82251 1-487): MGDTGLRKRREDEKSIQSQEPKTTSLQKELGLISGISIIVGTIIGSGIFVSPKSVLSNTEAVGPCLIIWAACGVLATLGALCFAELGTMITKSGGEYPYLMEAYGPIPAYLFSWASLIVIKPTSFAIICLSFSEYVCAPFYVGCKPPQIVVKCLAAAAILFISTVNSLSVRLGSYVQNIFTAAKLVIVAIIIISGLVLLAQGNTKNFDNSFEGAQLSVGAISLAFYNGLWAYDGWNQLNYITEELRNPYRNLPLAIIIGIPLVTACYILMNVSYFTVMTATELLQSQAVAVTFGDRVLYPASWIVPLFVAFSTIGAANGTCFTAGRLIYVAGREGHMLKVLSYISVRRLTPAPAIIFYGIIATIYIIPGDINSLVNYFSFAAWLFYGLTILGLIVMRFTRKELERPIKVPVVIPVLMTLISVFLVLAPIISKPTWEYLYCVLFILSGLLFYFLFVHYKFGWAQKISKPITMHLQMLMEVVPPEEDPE
T1 sequence (Q07837 1-685 partner): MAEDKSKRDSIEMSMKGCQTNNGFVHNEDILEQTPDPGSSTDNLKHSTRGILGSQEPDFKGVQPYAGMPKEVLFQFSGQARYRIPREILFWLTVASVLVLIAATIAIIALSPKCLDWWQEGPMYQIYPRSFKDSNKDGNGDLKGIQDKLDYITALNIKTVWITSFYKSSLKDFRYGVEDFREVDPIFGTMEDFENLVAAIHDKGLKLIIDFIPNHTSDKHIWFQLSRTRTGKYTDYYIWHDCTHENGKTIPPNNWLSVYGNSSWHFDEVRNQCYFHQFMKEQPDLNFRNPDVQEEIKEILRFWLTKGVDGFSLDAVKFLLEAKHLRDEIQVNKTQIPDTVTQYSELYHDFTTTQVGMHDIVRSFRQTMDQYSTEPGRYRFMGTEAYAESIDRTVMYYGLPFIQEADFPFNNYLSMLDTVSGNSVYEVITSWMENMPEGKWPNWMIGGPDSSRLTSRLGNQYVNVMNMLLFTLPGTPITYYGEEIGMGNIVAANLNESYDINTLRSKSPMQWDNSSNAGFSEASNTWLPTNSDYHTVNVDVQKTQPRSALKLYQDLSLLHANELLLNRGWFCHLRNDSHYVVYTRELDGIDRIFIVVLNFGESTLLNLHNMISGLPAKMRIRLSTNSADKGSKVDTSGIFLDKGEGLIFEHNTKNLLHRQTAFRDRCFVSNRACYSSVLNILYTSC

[2] = biological target: T1, b0,+AT (SLC7A9), in the heteromeric transporter b0,+AT-rBAT; assay: inhibition of radiolabeled L-arginine ([…]), L-homoarginine and ADMA uptake by […] L-cystine in double-transfected MDCK cells; assay type: cell-based; set-up: human b0,+AT (NM_001126335) co-expressed with human rBAT (NM_000341.3) in MDCKII cells; with rBAT (SLC3A1)
[3] = biological target: T1, b0,+AT (SLC7A9), in the heteromeric transporter b0,+AT-rBAT; details: read-out: radiolabeled uptake in double-transfected MDCK cells, not saturated up to 4000 μ
[4] = substrate: N=C(N)NCCCC[C@H](N)C(=O)O; assay: cells, lysate or membranes

Question: With N=C(N)NCCC[C@H](N)C(=O)O [L-arginine] as the molecule, how does the IC50 [1] read?
Answer: Its IC50 is 116 µM.

Question: How did the “inhibition of radiolabeled L-arginine (100 μM), L-homoarginine and ADMA uptake b” value [2] turn out when N[C@@H](CSSC[C@H](N)C(=O)O)C(=O)O [L-cystine] was run?
Answer: The value was “the uptake of L-homoarginine (Fig. 9c) and ADMA (Fig. 9d) was significantly inhibited at the low tested concentrations”.

Question: How did the Km [3] turn out when CN(C)C(=N)NCCC[C@H](N)C(=O)O [asymmetric dimethylarginine] was run?
Answer: The Km was > 4000 µM.

B1: b0,+AT (SLC7A9), in the heteromeric transporter b0,+AT-rBAT (Homo sapiens) (protein)
chain: MGDTGLRKRREDEKSIQSQEPKTTSLQKELGLISGISIIVGTIIGSGIFVSPKSVLSNTEAVGPCLIIWAACGVLATLGALCFAELGTMITKSGGEYPYLMEAYGPIPAYLFSWASLIVIKPTSFAIICLSFSEYVCAPFYVGCKPPQIVVKCLAAAAILFISTVNSLSVRLGSYVQNIFTAAKLVIVAIIIISGLVLLAQGNTKNFDNSFEGAQLSVGAISLAFYNGLWAYDGWNQLNYITEELRNPYRNLPLAIIIGIPLVTACYILMNVSYFTVMTATELLQSQAVAVTFGDRVLYPASWIVPLFVAFSTIGAANGTCFTAGRLIYVAGREGHMLKVLSYISVRRLTPAPAIIFYGIIATIYIIPGDINSLVNYFSFAAWLFYGLTILGLIVMRFTRKELERPIKVPVVIPVLMTLISVFLVLAPIISKPTWEYLYCVLFILSGLLFYFLFVHYKFGWAQKISKPITMHLQMLMEVVPPEEDPE
Question: B1 was tested. Which Km [4] did it give?
Answer: The Km was 197.0 µM.
